{
  "source": "paper PMC10916400",
  "about": "“Effect of the aggregated protein dye YAT2150 on Leishmania parasite viability” (Antimicrobial Agents and Chemotherapy, 2024)",
  "key": {"[1]": {"system": "L. major promastigotes", "assay": "Luciferase assay for free intracellular ATP levels", "type": "cell-based, Leishmania major", "conditions": "luciferase-expressing L. major promastigotes, DMNPE-luciferin", "protocol": "The process described in reference ([62]) was followed. Briefly, L. major promastigotes (Friendlin strain) were transfected with the pLEXSY-hyg2.1 expression vector (Jena Bioscience, Jena, Germany) containing a cytoplasmic form of firefly luciferase mutated at its C-terminal tripeptide to prevent its import into the glycosome. Promastigotes were grown in Roswell Park Memorial Institute 1640 medium (RPMI) supplemented with 10% FBS, 2 mM L-glutamine, 1,000 U/mL penicillin/streptomycin (Gibco, Billings, MT, US), and 100 µg/mL hygromycin (InvivoGen, San Diego, CA, US) at 26°C. To assess variation in the intracellular concentration of free ATP, parasites were harvested at the late exponential phase of growth. After two washes with Hanks balanced buffer, parasites were resuspended in the same buffer supplemented with 10 mM D-glucose at 2.2 × 10^7 parasites/mL. After the addition of DMNPE-caged D-luciferin (GoldBio, St. Louis, MO, US) at 50 µM final concentration, the parasite suspension was aliquoted (90 µL/well) into a black 96-microwell plate (Nunc A/S, Roskilde, Denmark), and luminescence readout was monitored in a POLARstar Galaxy microplate reader (BMG LABTECH GmbH) with a luminescence setup. Once the luminescence reached a plateau, 10 µL of a YAT2150 solution at 10× fold its final concentration was added (t0) and the luminescence value at this point was considered as 100%. […]"}, "[2]": {"molecular_target": "T1, CYP1A2 (Homo sapiens, UniProt P05177)", "T1 construct": "host or cells: baculovirus-infected insect cells (microsomes)", "T1 sequence (P05177 1-516)": "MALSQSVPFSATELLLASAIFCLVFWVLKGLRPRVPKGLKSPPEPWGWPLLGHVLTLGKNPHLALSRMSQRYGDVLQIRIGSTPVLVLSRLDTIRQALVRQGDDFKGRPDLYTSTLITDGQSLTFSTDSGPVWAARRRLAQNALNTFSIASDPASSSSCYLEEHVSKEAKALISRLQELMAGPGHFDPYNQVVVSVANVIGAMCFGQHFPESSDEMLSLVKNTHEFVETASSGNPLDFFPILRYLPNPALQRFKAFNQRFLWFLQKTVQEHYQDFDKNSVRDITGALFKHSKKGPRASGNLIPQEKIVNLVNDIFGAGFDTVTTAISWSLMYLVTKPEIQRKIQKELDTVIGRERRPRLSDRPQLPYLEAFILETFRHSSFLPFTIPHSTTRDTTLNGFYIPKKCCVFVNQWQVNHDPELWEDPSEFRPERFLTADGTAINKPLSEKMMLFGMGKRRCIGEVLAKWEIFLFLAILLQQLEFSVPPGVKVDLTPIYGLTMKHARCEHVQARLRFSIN", "assay": "Cytochrome inhibition activity assay", "type": "biochemical", "conditions": "probe 3-cyano-7-ethoxycoumarin, human recombinant enzyme, 37°C", "protocol": "(§1) To screen the inhibition potential of the compounds using recombinant human cytochrome P450 enzymes (CYP1A2, CYP2C9, CYP2C19, and CYP2D6) and probe substrates with fluorescent detection, incubations were conducted in a 200-µL volume in 96-well microtiter plates (Costar #3915; Corning Inc.). Addition of cofactor-buffer mixture (0.2 M KH2PO4 buffer, 1.3 mM NADP, 3.3 mM MgCl2, 3.3 mM glucose-6-phosphate, and 0.4 U/mL glucose-6-phosphate dehydrogenase), previously diluted control Supersomes (insect cell control for Supersomes enzymes, baculovirus-insect cell-expressed; Corning Inc.), standard inhibitors (furafylline, tranylcypromine, sulfaphenazole, and quinidine), and test compounds was carried out by a Zephyr liquid handling station (Caliper Life Sciences, Hopkinton, MA, US). The plate was then pre-incubated at 37°C for 5 min, and the reaction was initiated by the addition of pre-warmed enzyme/substrate mix, which contained buffer (KH2PO4), cDNA-expressed P450 in insect cell microsomes, substrate (3-cyano-7-ethoxycoumarin for CYP1A2 and CYP2C19, 7-methoxy-4-(trifluoromethyl)coumarin for CYP2C9, and 3-[2-(N,N-diethyl-N-methylammonium)ethyl]-7-methoxy-4-methylcoumarin for CYP2D6) to obtain the final assay concentrations in a reaction volume of 200 µL. Reactions were terminated after a specific time for each cytochrome by the addition of stop solution (ACN:0.5 M tris-HCl, 80:20 vol/vol). Fluorescence in each well was measured using a fluorescence plate reader (EnVision 2104 multilabel plate reader; PerkinElmer, Waltham, MA, US), and percentage of inhibition was calculated."}, "[3]": {"molecular_target": "T2, CYP2C19 (Homo sapiens, UniProt P33261)", "T2 construct": "host or cells: baculovirus-infected insect cells (microsomes)", "T2 sequence (P33261 whole entry)": "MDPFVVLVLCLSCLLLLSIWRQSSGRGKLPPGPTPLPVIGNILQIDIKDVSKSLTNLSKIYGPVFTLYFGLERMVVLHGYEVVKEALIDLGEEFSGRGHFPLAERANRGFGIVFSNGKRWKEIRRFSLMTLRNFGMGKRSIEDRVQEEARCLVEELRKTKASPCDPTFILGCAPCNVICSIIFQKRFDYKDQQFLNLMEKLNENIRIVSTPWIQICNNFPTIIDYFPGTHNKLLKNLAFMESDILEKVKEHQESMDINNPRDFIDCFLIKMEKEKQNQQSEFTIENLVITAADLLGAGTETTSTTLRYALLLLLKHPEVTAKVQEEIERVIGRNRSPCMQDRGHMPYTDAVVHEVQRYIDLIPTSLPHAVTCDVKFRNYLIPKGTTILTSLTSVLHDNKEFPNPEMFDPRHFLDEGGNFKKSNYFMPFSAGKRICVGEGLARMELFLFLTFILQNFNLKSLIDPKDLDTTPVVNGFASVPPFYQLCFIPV", "assay": "Cytochrome inhibition activity assay", "type": "biochemical", "conditions": "human recombinant enzyme, 37°C", "protocol": "as §1"}, "[4]": {"molecular_target": "T3, CYP2C9 (Homo sapiens, UniProt P11712)", "T3 construct": "host or cells: baculovirus-infected insect cells (microsomes)", "T3 sequence (P11712 whole entry)": "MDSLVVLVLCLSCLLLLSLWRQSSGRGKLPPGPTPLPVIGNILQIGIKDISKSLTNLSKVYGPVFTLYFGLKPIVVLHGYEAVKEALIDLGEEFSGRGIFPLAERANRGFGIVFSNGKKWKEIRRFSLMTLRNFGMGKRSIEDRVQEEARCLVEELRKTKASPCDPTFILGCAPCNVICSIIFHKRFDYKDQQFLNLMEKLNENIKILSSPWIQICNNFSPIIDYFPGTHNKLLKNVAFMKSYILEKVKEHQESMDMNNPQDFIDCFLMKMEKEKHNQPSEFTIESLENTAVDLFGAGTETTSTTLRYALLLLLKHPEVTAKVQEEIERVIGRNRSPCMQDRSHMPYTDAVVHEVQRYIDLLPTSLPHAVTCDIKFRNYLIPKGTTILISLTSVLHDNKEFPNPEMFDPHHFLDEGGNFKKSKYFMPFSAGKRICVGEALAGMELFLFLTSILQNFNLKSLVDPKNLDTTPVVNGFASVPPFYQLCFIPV", "assay": "Cytochrome inhibition activity assay", "type": "biochemical", "conditions": "probe 7-methoxy-4-(trifluoromethyl)coumarin, human recombinant enzyme, 37°C", "protocol": "as §1"}, "[5]": {"molecular_target": "T4, CYP2D6 (Homo sapiens, UniProt P10635)", "T4 construct": "host or cells: baculovirus-infected insect cells (microsomes)", "T4 sequence (P10635 whole entry)": "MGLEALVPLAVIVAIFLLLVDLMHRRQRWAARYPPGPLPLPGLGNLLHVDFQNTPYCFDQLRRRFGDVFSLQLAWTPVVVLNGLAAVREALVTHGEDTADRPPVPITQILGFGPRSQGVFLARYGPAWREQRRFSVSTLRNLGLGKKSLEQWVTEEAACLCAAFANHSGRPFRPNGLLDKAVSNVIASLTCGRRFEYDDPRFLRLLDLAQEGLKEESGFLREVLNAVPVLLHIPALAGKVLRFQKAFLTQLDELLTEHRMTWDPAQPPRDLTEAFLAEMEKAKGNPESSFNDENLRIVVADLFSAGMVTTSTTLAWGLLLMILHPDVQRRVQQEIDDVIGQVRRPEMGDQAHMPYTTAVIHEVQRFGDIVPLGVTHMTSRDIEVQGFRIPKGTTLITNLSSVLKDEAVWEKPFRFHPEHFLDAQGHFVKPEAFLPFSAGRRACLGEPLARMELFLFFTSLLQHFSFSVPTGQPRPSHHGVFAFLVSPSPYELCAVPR", "assay": "Cytochrome inhibition activity assay", "type": "biochemical", "conditions": "human recombinant enzyme, 37°C", "protocol": "as §1"}, "[6]": {"system": "Caco-2 cells", "assay": "Caco-2 permeability assay", "type": "in vitro ADME", "conditions": "Caco-2, A→B, 37°C", "protocol": "(§2) Caco-2 cells (ATCC under the license of Abcam Inc., doing business as NaviCyte Scientific, Berkeley, CA) cultured to confluency were trypsinized and seeded onto a filter transwell insert (high-throughput screening Transwell 96-well permeable supports; Corning Inc.) at a density of ~10,000 cells/well in Dulbecco’s modified Eagle’s medium (DMEM). Confluent cells were subcultured at passages 58–62 and grown in a humidified atmosphere of 5% CO2 at 37°C. Following an overnight attachment period (24 h after seeding), the cell medium was replaced every other day with fresh medium in both the apical and basolateral compartments. The cell monolayers were used for transport studies 21 days post-seeding, when monolayer integrity was checked by measuring the transepithelial electrical resistance (TEER). If TEER values were ≥500 Ω/cm^2, the medium was removed and the cells were washed twice with pre-warmed (37°C) Hank’s Balanced Salt Solution (HBSS). Compound stock solutions were made in DMSO and further diluted in HBSS (1% final DMSO concentration). All compounds, including controls (colchicine, E3S), were tested at a final concentration of 5 to 10 µM. For A → B directional transport, the donor working solution was added to the apical compartment (A) and HBSS as receiver working solution to the basolateral compartment (B). For B → A directional transport, the donor working solution was added to B and HBSS as receiver working solution to A. The cells were incubated at 37°C for 120 min with gentle stirring. At the end of the incubation, samples were taken from both donor and receiver compartments and transferred into 384-well plates, and compound concentrations were determined by UPLC-MS/MS analysis as for the plasma stability assay."}, "[7]": {"assay": "Caco-2 permeability assay", "type": "in vitro ADME", "conditions": "human", "protocol": "as §2"}},
  "data": [
    {"smiles": "CCN(CC)c1ccc(/C=C/c2cc[n+](CCCCCCCCCC[n+]3ccc(/C=C/c4ccc(N(CC)CC)cc4)c(C)c3)cc2C)cc1", "note": "[YAT2150]", "values": [
      {"measurement": "concentration beyond which a concentration-dependent reduction in luminescence (ATP) was observed", "setting": "[1]", "value": "> 2", "unit": "µM"},
      {"measurement": "inhibition at 10 µM", "setting": "[2]", "value": "~50", "unit": "%"},
      {"measurement": "IC50", "setting": "[3]", "value": 1.1, "unit": "µM"},
      {"measurement": "inhibition at 10 µM", "setting": "[4]", "value": "~50", "unit": "%"},
      {"measurement": "IC50", "setting": "[5]", "value": 1.7, "unit": "µM"},
      {"measurement": "Papp AB", "setting": "[6]", "value": "20.76 ± 2.01", "unit": "×10⁻⁶ cm/s"},
      {"measurement": "Papp A→B at 120 min", "setting": "[7]; Caco-2, Caco-2, A→B, 37°C", "value": "> 20", "unit": "×10⁻⁶ cm/s"},
      {"measurement": "Papp B→A at 120 min", "setting": "[7]; Caco-2, Caco-2, B→A, 37°C", "value": "~10", "unit": "×10⁻⁶ cm/s"},
      {"measurement": "efflux ratio at 120 min", "setting": "[7]; Caco-2, Papp BA/Papp AB", "value": 0.48}
    ]}
  ]
}
